Test [1] relates to dermatitis induced by repeated application of hapten. The test can be described thus: Mouse dermatitis model induced by repeated application of hapten (DNFB), ear thickness. Particulars: for suppression of increase in ear thickness (skin reaction after hapten application): five days a week. The class given is in vivo, C3H/HeN mice. The protocol: Dermatitis was induced in accordance with an already reported method (J. Pharmacol. Exp. Ther. 283, 321, 1997) using dinitrofluorobenzene (DNFB) as hapten. That is, the right ears of eight-week old female C3H/HeN mice (Nippon Clare) (n=7) were painted with 0.15% DNFB (25 μl) dissolved in an acetone/olive oil (3:1) every seven days six times. When applying the hapten each time, the ear thickness was measured by a micrometer (Digimatic Indicator, Mitsutoyo Co.) immediately before the application and 1 hour, 6 hours, 24 hours, and 48 hours after the application so as to find the amount of increase from the ear thickness before the first application of hapten. Further, a group similarly treated with an acetone/olive oil solution (3:1) not containing DNFB was used as a control. Further, in a test separate from the above, the ears were cut off immediately before the third application of hapten, the chymase-like activity of the skin was measured in accordance with an already reported method (n=3), and this was compared with the activity of mice treated with an acetone/olive oil solution (3:1) not containing DNFB (n=2).
The effect of a test substance on dermatitis was investigated by inducing dermatitis in accordance with the method described in Example 9 (n=7) and measuring the ear thickness in the same way as in Example 9. As the test substance, three chymase inhibitors (Compound 18, Compound 34, and Compound 35) were used, while as the control, the steroid prednisolone (Nakarai Tesc Inc.) was used. Further, the test substance was suspended in saline containing 0.5% hydroxypropyl cellulose in the same way as in Example 3 (HPC/saline) and intraperitoneally administered in dosages of 10 mg/kg or 50 mg/kg once a day for five consecutive days a week until the end of the test; the first administration was performed immediately before the start of the hapten application. Further, a group similarly treated with DNFB and administered HPC/saline instead of the test substance was used as a control group.

Another test relates to eosinophils of the skin. The test can be described thus: Increase in eosinophils of skin in hapten-induced mouse dermatitis model. As to conditions: 48 hours after sixth application of hapten. Format: in vivo, C3H/HeN mice. The protocol:
The effect of a chymase inhibitor on the infiltration of eosinophils of the skin in the test of Example 10 was studied. That is, 48 hours after the sixth application of hapten, the ears of the mice were fixed with formalin and paraffin sections prepared in accordance with an ordinary method. The sections were stained with Fast Green (Fluka), known to specifically stain eosinophils (Current Protocol in Immunology, Wiley Interscience). That is, the deparaffined sections were fixed with 100% methanol for 1 minute, then stained for 30 minutes by 0.2% Fast Green dissolved in 70% ethanol. The eosinophils were measured by randomly selecting 10 fields (×400) under a microscope and counting the number of cells per area using an ocular grid. As the chymase inhibitor, the Compound 18 and Compound 34 were used and =administered by the method described in Example 10. Further, a group treated with an acetone/olive oil solution (3:1) not containing DNFB was used as the non-induced control group, while a group treated with DNFB and administered HPC/saline instead of the test substance was used as the control for the group administered the chymase inhibitor.

A further test relates to mast cells of skin. The test can be described thus: Increase in number of mast cells of skin in hapten-induced mouse dermatitis model. The class given is in vivo, C3H/HeN mice. As to conditions: 48 hours after sixth application of hapten. The protocol: The effect of a chymase inhibitor on the increase in mast cells of skin in the test of Example 10 was studied. In the same way as Example 11, the ears of the mice were fixed with formalin and paraffin sections prepared by an ordinary method 48 hours after the sixth application of hapten. The mast cells of the sections were stained by the Toluidine Blue method, then the number of mast cells were counted under a microscope (×400) for 10 fields per section. The density of mast cells of the skin was measured in accordance with the method of Kitagaki et al. (J. Invest. Dermatol. 105, 749, 1995). As the chymase inhibitor, use was made of Compound 18 and Compound 34. These were administered by the method described in Example 10. Further, a group treated with an acetone/olive oil solution (3:1) not containing DNFB was used as the non-induced control group, while a group treated with DNFB and administered HPC/saline instead of the test substance was used as the control for the group administered the chymase inhibitor.

For the next test, the system named is natural onset dermatitis. The test is described as follows: Natural onset dermatitis (NC/Nga) mice. Format: in vivo. Particulars: 150 mg/kg/day in drinking water, 35 days. From the text: NC/Nga mice were bred and raised in accordance with the methods described in previous reports (Progress in Medicine 19, 1201, 1999). Specifically, 5-week old NC/Nga mice obtained from Charles River Japan and raised under a specific pathogen free (SPF) environment were mixed with NC/Nga mice bred by the Faculty of Applied Biological Science of Hiroshima University starting from 6 weeks of age, kept until 15 weeks of age in a normal non-SPF environment, then used for the tests. The tests were conducted under non-SPF, conventional environment. The test substance (Compound 18) was mixed with the drinking water and administered for 35 consecutive days at 150 mg/kg/day (n=7), then an evaluation was conducted in accordance with the method described in previous reports (Progress in Medicine 19, 1201, 1999). That is, first, 35 days after the start of administration, the five items of (1) scratching behavior, (2) edema, (3) erythema and hemorrhaging, (4) depilation and ulceration, and (5) dryness were scored as 0 to 2 and the total found to judge the outer appearance of the skin. Next, the ears and skin of the back were fixed with formalin, embedded in paraffin, and histologically analyzed by staining the ear specimens by the hematoxylin and Eosin method, Toluidine Blue method, or Congo Red method (Stain Technol. 56, 323, 1981) and by staining the back skin specimens by the Toluidine Blue method or Congo Red method. Sections of the ear stained with Hematoxylin and Eosin were evaluated by judging the change in tissue in four scales of 0 to 3 for three items of (1) thickness of epidermis, (2) thickness of dermis, and (3) cellular infiltration and expressing as the total score. Further, the specimens stained with Toluidine Blue and stained with Congo Red were used for counting the mast cells and eosinophils. Specifically, the eosinophils of the back skin were counted in a ×400 field of a microscope, while the other cells were counted in a total of five ×200 fields and the totals expressed.

Test [2] deals with human polymorphonuclear leukocytes (PMN). The test is described as follows: Human chymase-induced migration of polymorphonuclear leukocytes, 48-well chemotaxis chamber. The class given is cell-based. As to conditions: inhibitor in lower well, 1% dimethyl sulfoxide, 37° C. 1 hour. The protocol: In Example 6, it was shown that a remarkable infiltration of leukocytes is observed in late-phase reaction of human chymase-induced dermatitis. The effect of human chymase on the migration of polymorphonuclear leukocytes (PMN) in vitro was investigated for the purpose of investigating the mechanism of chymase-induced leukocyte infiltration. PMN was isolated by adding a ⅕th volume of 6% dextran solution to heparinized whole blood from normal healthy subject and allowing it to stand at 37° C. for 1 hour, then layering the supernatent on Ficoll-Paque (Amersham Pharmacia Biotech) and centrifuging it. Further, the migration of PMN was measured by using a 48-well chemotaxis chamber (NeuroProbe Co.) by the textbook method (Seibutsu Yakkagaku Jikken Koza (Biopharmacology Experiment Lectures) 12, 315, Hirokawa Shoten). That is, a medium containing human chymase (200 to 800 nM) or fMLP (N-formyl-L-methionyl-L-leucyl-L-phenylalanine, Sigma-Aldrich Co.) (10 nM) was placed in the lower well of the chamber. The upper well and the lower well were separated by a polycarbonate filter (pore size 5 μm) (NeuroProbe Co.) PMN (1×10^6/ml) was added to the upper well and cultured at 37° C. for 1 hour, then the filter was fixed, stained and the number of cells in the membrane were counted under a microscope (400×) (Seibutsu Yakkagaku Jikken Koza (Biopharmacology Experiment Lectures) 12, 315). For the cell staining, a hemacolor solution (Merck) was used. In this test, when investigating the effect of the chymase inhibitor, a chymase inhibitor (Compound 18 or Compound 34) was dissolved in dimethyl sulfoxide and added to the lower well of the chamber just before the addition of the human chymase. The concentration of the compound was adjusted so that the final concentration of the dimethyl sulfoxide became 1%.

The subject of test [3] is Ascaris-induced mouse biphasic dermatitis. The test can be described thus: Ascaris-induced mouse biphasic dermatitis model, ear edema. Format: in vivo, BALB/c mice. The protocol: Ascaris-induced biphasic dermatitis was induced according to the method described previously (Folia Pharmacol. Jap. 112, 221, 1998). That is, 8-week old BALB/c mice (Charles River Japan) were sensitized by intraperitoneal injection of 0.5 ml of a 1:1 mixture of ascaris extract (800 μg/ml, Cosmo Bio Co., Ltd.) and an alum saline suspension (16 mg/ml in saline). Two weeks after the sensitization, 10 μl of ascaris extract (1 mg/ml) was injected intradermally to the right ear of mice. The edema induced at the ear were evaluated immediately before intradermal injection of the ascaris extract (n=3) and 1 hour after (n=4), 2 hours after (n=4), 4 hours after (n=4), 6 hours after (n=4), 16 hours after (n=4), and 24 hours after injection (n=4), by weighing ear biopsy prepared with a punch (a diameter of 6 mm, Fukui Kiko Shokai) and measuring their weights. The edema (mg) was expressed as the difference in the weight of the ear punch biopsy between the right and the left ears of the same mouse. Dermatitis was induced in accordance with the method described in Example 2 and the ear edema was measured in the same way as in Example 2, 1 hour (n=6) and 16 hours (n=8) after the intradermal administration of ascaris extract to the ears to investigate the effects of the test substance on dermatitis. As the chymase inhibitor, Compound 34 was used. As the control drug, diphenhydrazine (antihistamine, Sigma) and prednisolone (steroid, Nakarai Tesc Co.) were used. Each drug under study was suspended in saline containing 0.5% hydroxypropyl cellulose and administered intraperiotoneally 60 minutes before intradermal administration of ascaris extract. A group of mice sensitized with ascaris extract and challenged by intradermal injection of saline was used as a control (n=3).

The mark [4] stands for this setting: 10 mg/kg intraperitoneal once a day.
Where [5] appears, read: 50 mg/kg intraperitoneal once a day, p<0.05 Dunnett's test.
[6] abbreviates: 50 mg/kg intraperitoneal, 60 minutes before ascaris extract, p<0.01.

Molecules are shown by their SMILES. Counter-ions that a name gives are not always drawn.

Regarding `Nc1cc(S(=O)(=O)n2c(=O)[nH]c3cc(Cl)ccc3c2=O)ccc1C(=O)O` [Compound 18, 4-[(7-chloro-2.4 (1H,3H)-quinazolinedion-3-yl)sulfonyl]anthranilic Acid Monosodium Salt], the “suppression of increase in ear thickness (skin reaction after hapten application)” value (from here on “suppression of increase in ear thickness”) in test [1] (setting [4]) is reported as “significant effect”; in test [1] (setting [5]), “significantly suppressed”. Also, the entries for the “rate of suppression of increase in eosinophils” value in the test with eosinophils of the skin (10 mg/kg intraperitoneal) and in the test with eosinophils of the skin (50 mg/kg intraperitoneal) were 37.1% and 60.5%, respectively. In addition, the “rate of suppression of increase in density of mast cells” value was “about 57%” with mast cells of skin (10 mg/kg intraperitoneal) and “about 64%” in the test with mast cells of skin (50 mg/kg intraperitoneal). In addition, in the test with natural onset dermatitis, the “number of mast cells of ear skin and back skin” value was “significant suppressive effect”. Moreover, the “numbers of eosinophils of ear skin and back skin” value in the test on natural onset dermatitis is recorded as “significantly suppressed”. The “histological score of the ears” value in the test on natural onset dermatitis (p<0.05 Mann-Whitney) was “decreased significantly”. Besides, the “dermatitis score (clinical skin score)” value with natural onset dermatitis (vs control group, p<0.05 Mann-Whitney) is “decreased significantly”. In test [2], the “suppression of human chymase-promoted migration of human PMN” value was “significantly suppressed”.
As to `CS(=O)(=O)O.Nc1cccc(S(=O)(=O)n2c(=O)[nH]c3cc(Cl)ccc3c2=O)c1` [Compound 34, 3-(3-aminobenzenesulfonyl)-7-chloro-2,4-(1H,3H)quinazolinedion Methanesulfonic Acid Salt], the “suppression of increase in ear thickness” value was “significant suppressive effect” in test [1] (setting [4]) and “significantly suppressed” in test [1] (setting [5]). Moreover, the “rate of suppression, early-phase reaction (ear edema after 1 hour)” value in test [3] (setting [6]) is listed as “about 41%”. For the same compound, the “rate of suppression, late-phase reaction (ear edema after 16 hours)” value in test [3] (setting [6]) is listed as “about 45%”. Besides, the “effect on increase in eosinophils” value in the test with eosinophils of the skin (10 and 50 mg/kg intraperitoneal) was “no statistically significant difference”. The “rate of suppression of increase in density of mast cells” value in the test with mast cells of skin (10 mg/kg intraperitoneal) is given as “about 37%”; in the test on mast cells of skin (50 mg/kg intraperitoneal) it was “about 51%”. In addition, in test [2], the “suppression of human chymase-promoted migration of human PMN” value is “significantly suppressed”.
In the case of `Cl.O=c1[nH]c2cc(Cl)ccc2c(=O)n1S(=O)(=O)c1ccc(-c2cc[nH]n2)cc1` [Compound 35, 7-chloro-3-[4-(pyrazol-3-yl)benzenesulfonyl]-2,4(1H,3H)-quinazolinedione Hydrochloride], the “suppression of increase in ear thickness” value in test [1] (setting [5]) was “significantly suppressed”.
As to `C[C@]12C=CC(=O)C=C1CC[C@@H]1[C@@H]2[C@@H](O)C[C@@]2(C)[C@H]1CC[C@]2(O)C(=O)CO` [Prednisolone, prednisolone], the “suppression of dermatitis (ear thickness)” value in test [1] (control drug, 10 mg/kg or 50 mg/kg intraperitoneal) is recorded as “suppressed dermatitis in this model in a dose-dependent manner”. In addition, in test [3] (30 mg/kg intraperitoneal, 16 hours after challenge), the “rate of suppression, late-phase reaction” value is recorded as 67%. Moreover, in test [3] (control drug, intraperitoneal, 1 hour after challenge), the “effect against the early-phase reaction” value was “substantially ineffective”.
Take `CN(C)CCOC(c1ccccc1)c1ccccc1` [diphenhydrazine]: the “rate of suppression, early-phase reaction” value in test [3] (control drug, intraperitoneal, dose not given, 1 hour after challenge) is recorded as 79%. For the same compound, the “effect against the late-phase reaction” value in test [3] (control drug, intraperitoneal, dose not given, 16 hours after challenge) is listed as “almost no effect”.

(Values after patent publication US7618977B2, “Method of treating dermatitis comprising administering a chymase inhibitor” (Asubio Pharma Co., Ltd., priority 2000, dated 2009).)
